Experimental data reported in patent US8088918B2, “Noncardiotoxic pharmaceutical compounds” (Williamsburg Holdings LLC, priority 2004, dated 2012).

Legend:
[1] = Stability testing of prodrugs in human plasma; type: in vitro ADME; settings: 10 μM, ca. 37° C.
Experimental: Pooled human plasma was obtained from Bioreclamation (East Meadow, N.Y.) by collection into sodium EDTA as the anticoagulant, and was stored at ca −20° C. prior to use. Prior to use, the plasma defrosted and was spun at ca. 3000 rpm for 5 minutes to remove any precipitate. The pH of the plasma was adjusted to pH 7.4 by careful addition of NaH2PO4 buffer.
Plasma stability was assessed by incubation of 10 μM of each compound prepared in Examples 1-5 with human plasma, in duplicate, at ca. 37° C. with shaking. Each compound prepared in Examples 1-5 was also incubated at 10 μM in PBS as a control for compound heat stability. Aliquots were removed at 0, 0.5, 1 and 2 hours and stored at −20° C. until analysis.
For analysis, plasma samples were extracted in 1 part acetonitrile and isolation of the supernatant. Analysis of each compound prepared in Examples 1-5 in plasma extracts was conducted by an LC-MS method at each time interval and quantification was achieved by comparison of the response due to the sample to that of a three point standard curve. Appearance of the parent drug the hydroxymetabolites were also monitored at each time interval. The % degradation following incubation at each time point was calculated by comparison of the parent concentration to that at 0 minutes.

[2] = Stability testing of prodrugs in rat plasma (elevated esterase activity); type: in vitro ADME, Sprague-Dawley rat; settings: 10 μM, ca. 37° C.
Experimental: Sprague-Dawley rat plasma was obtained by collection into sodium EDTA as the anticoagulant, and was stored at ca −20° C. prior to use. Prior to use, the plasma defrosted and was spun at ca. 3000 rpm for 5 minutes to remove any precipitate. The pH of the plasma was adjusted to pH 7.4 by careful addition of NaH2PO4 buffer.
Plasma stability was assessed by incubation of 10 μM of each compound prepared in Examples 1-5 with rat plasma, in duplicate, at ca. 37° C. with shaking. Each compound prepared in Examples 1-5 was also incubated at 10 μM in PBS as a control for compound heat stability. Aliquots were removed at 0, 0.5, 1 and 2 hours and stored at −20° C. until analysis.
For analysis, plasma samples were extracted in 1 part acetonitrile and isolation of the supernatant. Analysis of each compound prepared in Examples 1-5 in plasma extracts was conducted by an LC-MS method at each time interval and quantification was achieved by comparison of the response due to the sample to that of a three point standard curve. Appearance of the parent drug and the hydroxymetabolites were also monitored at each time interval. The % degradation following incubation at each time point was calculated by comparison of the parent concentration to that at 0 minutes.

[3] = Metabolic stability, microsomal incubations without inhibitor; type: in vitro ADME; settings: 10 μM, 0.5 mg/mL microsomal protein
Experimental: (§1) The metabolic stability of each compound prepared in Examples 1-5 was assessed in microsomal preparations obtained from BD Gentest (Woburn, Mass.).
(§2) The metabolic stability of each compound prepared in Examples 1-5 was assessed in duplicate by incubation of 10 μM compound with 0.5 mg/mL microsomal protein, 1 mM in 0.1 M phosphate buffer, pH 7.4 in the presence and absence of a CYP3A4 inhibitor (ketoconazole). The reaction mixture was pre-incubated, in the absence of the microsomes, at ca. 37° C. for 5 minutes, followed by initiation of the incubation by the addition of microsomal protein and maintained at ca. 37° C. for a further 0, 30 and 60 minutes. After the appropriate incubation time, the mixtures were quenched by the addition of one volume of acetonitrile and the supernatant was isolated by centrifugation. Positive control incubations (7-ethoxycoumarin) were performed in the same manner as the compounds from Examples 1-5 and quenched after 0 and 30 minutes. In addition, negative control incubations were performed for 60 minutes in the absence of NADPH to assess chemical stability.
(§3) Analysis of supernatants from each time interval was conducted for each compound prepared in Examples 1-5 by LC-MS analysis. Quantification of the disappearance on the parent drug was achieved by comparison of the sample response to that of a suitable standard curve constructed in 0.1 M phosphate buffer, pH 7.4. The standard curve ranged between ≦1% up to ≧100% of the dosing concentration.
(§4) The % turnover following 60 minutes of incubation was calculated by comparison of the parent concentration to that at 0 minutes. The % degradation was calculated in the same manner from the negative control incubations. Appearance of the parent drug and the hydroxymetabolites were also monitored at each time interval.

[4] = Metabolic stability, microsomal incubations with ketoconazole (CYP3A4 inhibitor); type: in vitro ADME; settings: 10 μM, 0.5 mg/mL microsomal protein
Experimental: as §1, §2, §3, §4

recombinant human CYP3A4 = target: T1, recombinant human CYP3A4 (Homo sapiens, UniProt P08684); experiment: Metabolic stability in the presence of CYP3A4 isozyme; type: in vitro ADME; settings: 10 μm compound
T1 construct: purchased BD Gentest (Woburn, Mass.)
Experimental: (§5) The metabolic stability of each compound prepared in Examples 1-5 was assessed in the presence of CYP2D6 and CYP3A4 obtained from BD Gentest (Woburn, Mass.).
(§6) The metabolic stability of each compound prepared in Examples 1-5 was assessed in duplicate by incubation of 10 μm compound with recombinant human CYP2D6 and 3A4 using similar conditions to those in Example 9. Samples were removed for analysis at 0, 30 and 60 minutes and extracted with one volume of organic solvent. Appropriate controls were included. Quantification of the disappearance of the prodrug was conducted LC-MS. Appearance of metabolites was also monitored.

CYP2D6 = CYP2D6 (Homo sapiens, UniProt P10635); experiment: Metabolic stability in the presence of CYP2D6 isozyme; type: in vitro ADME; set-up: purchased BD Gentest (Woburn, Mass.); settings: 10 μm compound
Experimental: as §5, §6

[5] = Stability testing in simulated gastric fluids; settings: 10 μM, saline pH approximately 1 plus pepsin
[6] = Stability testing in simulated intestinal fluids; settings: 10 μM
[7] = phosphate pH 6, incubation time 0 min
[8] = phosphate pH 6, incubation time 30 min
[9] = phosphate pH 6, incubation time 60 min
[10] = phosphate pH 6, incubation time 120 min

CYP2D6, sequence (P10635 whole entry): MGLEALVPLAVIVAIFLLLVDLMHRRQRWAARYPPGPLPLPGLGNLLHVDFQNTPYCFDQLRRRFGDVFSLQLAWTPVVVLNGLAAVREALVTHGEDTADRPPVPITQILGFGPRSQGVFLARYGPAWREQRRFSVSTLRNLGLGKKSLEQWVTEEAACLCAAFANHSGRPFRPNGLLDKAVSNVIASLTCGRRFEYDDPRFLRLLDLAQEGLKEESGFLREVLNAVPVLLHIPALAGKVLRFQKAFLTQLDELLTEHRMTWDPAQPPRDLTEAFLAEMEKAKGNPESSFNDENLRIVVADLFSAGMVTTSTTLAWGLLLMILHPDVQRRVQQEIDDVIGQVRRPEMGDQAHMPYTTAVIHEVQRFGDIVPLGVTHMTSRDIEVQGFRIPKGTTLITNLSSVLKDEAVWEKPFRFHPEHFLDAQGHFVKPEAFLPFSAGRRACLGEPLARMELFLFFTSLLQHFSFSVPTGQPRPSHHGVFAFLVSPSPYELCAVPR
T1 sequence (P08684 whole entry): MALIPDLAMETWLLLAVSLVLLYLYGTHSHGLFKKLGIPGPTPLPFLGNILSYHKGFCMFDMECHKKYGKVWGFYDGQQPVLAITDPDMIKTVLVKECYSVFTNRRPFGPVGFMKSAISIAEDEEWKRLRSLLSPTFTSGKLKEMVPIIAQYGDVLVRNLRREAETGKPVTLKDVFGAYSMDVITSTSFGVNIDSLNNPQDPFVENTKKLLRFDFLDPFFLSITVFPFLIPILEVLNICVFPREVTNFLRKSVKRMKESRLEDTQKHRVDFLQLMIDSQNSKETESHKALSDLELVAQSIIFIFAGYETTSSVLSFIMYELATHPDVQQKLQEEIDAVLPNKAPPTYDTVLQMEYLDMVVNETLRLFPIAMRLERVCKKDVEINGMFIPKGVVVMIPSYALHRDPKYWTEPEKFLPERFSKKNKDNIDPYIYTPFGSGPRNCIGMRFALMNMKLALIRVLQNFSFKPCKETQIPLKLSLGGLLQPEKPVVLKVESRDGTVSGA

Row | SMILES | Loss of parent compound in human plasma (%) ([1]; incubation time 0 min) | Loss of parent compound in human plasma (%) ([1]; incubation time 30 min) | Loss of parent compound in human plasma (%) ([1]; incubation time 60 min) | Loss of parent compound in human plasma (%) ([1]; incubation time 120 min) | Loss of parent compound in rat plasma (%) ([2]; incubation time 0 min) | Loss of parent compound in rat plasma (%) ([2]; incubation time 30 min) | Loss of parent compound in rat plasma (%) ([2]; incubation time 60 min) | Loss of parent compound in rat plasma (%) ([2]; incubation time 120 min) | Loss of parent compound with no ketoconazole (%) ([3]; incubation time 30 min) | Loss of parent compound with no ketoconazole (%) ([3]; incubation time 60 min) | Loss of parent compound with ketoconazole (%) ([4]; incubation time 30 min) | Loss of parent compound with ketoconazole (%) ([4]; incubation time 60 min) | Loss of parent compound with CYP3A4 isozyme (%) (recombinant human CYP3A4; incubation time 0 min) | Loss of parent compound with CYP3A4 isozyme (%) (recombinant human CYP3A4; incubation time 30 min) | Loss of parent compound with CYP3A4 isozyme (%) (recombinant human CYP3A4; incubation time 60 min) | Loss of parent compound with CYP2D6 isozyme (%) (CYP2D6; incubation time 0 min) | Loss of parent compound with CYP2D6 isozyme (%) (CYP2D6; incubation time 30 min) | Loss of parent compound with CYP2D6 isozyme (%) (CYP2D6; incubation time 60 min) | Loss of parent compound in simulated gastric fluid (%) ([5]; incubation time 0 min) | Loss of parent compound in simulated gastric fluid (%) ([5]; incubation time 30 min) | further results
1 | COC(=O)N(C)CCCN1c2ccccc2CCc2ccccc21 [RIC-5a, [3-(10,11-Dihydro-dibenzo[b,f]azepin-5-yl)-propyl]-methyl-carbamic acid methyl ester] | 0.00% | 5.47% | 15.80% | 26.22% | 0.00% | 8.81% | 23.43% | 45.85% | 70.94% | 87.25% | 27.65% | 62.37% | 0.00% | 91.32% | 97.96% | 0.00% | 73.91% | 83.13% | 0.00% | 13.93% | Loss of parent compound in simulated gastric fluid (%) ([5]; incubation time 60 min): 31.78%; Loss of parent compound in simulated gastric fluid (%) ([5]; incubation time 120 min): 81.43%; Loss of parent compound in simulated intestinal fluid (%) [6, 7]: 0.00%; Loss of parent compound in simulated intestinal fluid (%) [6, 8]: 16.75%; Loss of parent compound in simulated intestinal fluid (%) [6, 9]: 22.88%; Loss of parent compound in simulated intestinal fluid (%) [6, 10]: 35.18%
2 | CCCOC(=O)N(C)CCCN1c2ccccc2CCc2ccccc21 [RIC-5b, [3-(10,11-Dihydro-dibenzo[b,f]azepin-5-yl)-propyl]-methyl-carbamic acid propyl ester] | 0.00% | 7.15% | 6.85% | 21.06% | 0.00% | 7.17% | 8.34% | 23.42% | 64.76% | 82.29% | 31.69% | 50.21% | 0.00% | 92.32% | 95.20% | 0.00% | 19.21% | 28.01% | 0.00% | 58.72% | Loss of parent compound in simulated gastric fluid (%) ([5]; incubation time 60 min): 26.67%; Loss of parent compound in simulated gastric fluid (%) ([5]; incubation time 120 min): 94.37%; Loss of parent compound in simulated intestinal fluid (%) [6, 7]: 0.00%; Loss of parent compound in simulated intestinal fluid (%) [6, 8]: 6.73%; Loss of parent compound in simulated intestinal fluid (%) [6, 9]: 13.57%; Loss of parent compound in simulated intestinal fluid (%) [6, 10]: 25.61%
3 | CC(C)COC(=O)N(C)CCCN1c2ccccc2CCc2ccccc21 [RIC-5c, [3-(10,11-Dihydro-dibenzo[b,f]azepin-5-yl)-propyl]-methyl-carbamic acid isobutyl ester] | 0.00% | 5.11% | −1.48% | 25.82% | 0.00% | −14.69% | −2.88% | 33.40% | 54.01% | 76.36% | 6.36% | 19.49% | 0.00% | 72.07% | 90.69% | 0.00% | 43.71% | 70.07% | 0.00% | 70.64% | Loss of parent compound in simulated gastric fluid (%) ([5]; incubation time 60 min): 82.77%; Loss of parent compound in simulated gastric fluid (%) ([5]; incubation time 120 min): 98.11%; Loss of parent compound in simulated intestinal fluid (%) [6, 7]: 0.00%; Loss of parent compound in simulated intestinal fluid (%) [6, 8]: 1.05%; Loss of parent compound in simulated intestinal fluid (%) [6, 9]: 12.68%; Loss of parent compound in simulated intestinal fluid (%) [6, 10]: 21.78%
